Experiments:
[1] = target: Gamma-aminobutyric acid Receptor A; type: cell-based; conditions: GABAA, Blocker mode; positive control; read-out: RC50 (Result Type IC50)
[2] = target: Nicotinic acetylcholine Receptor α4 β2 (Homo sapiens, UniProt P17787+P43681); type: cell-based; conditions: nACHR(a4/b2), Blocker mode; positive control; read-out: RC50 (Result Type IC50)
[3] = target: 5-Hydroxytryptamine (Serotonin) Receptor 1B (Homo sapiens, UniProt P28222); assay: 5-HTR1B activity assay (Agonist/Antagonist); type: cell-based
5-Hydroxytryptamine (Serotonin) Receptor 1B, sequence (P28222 whole entry): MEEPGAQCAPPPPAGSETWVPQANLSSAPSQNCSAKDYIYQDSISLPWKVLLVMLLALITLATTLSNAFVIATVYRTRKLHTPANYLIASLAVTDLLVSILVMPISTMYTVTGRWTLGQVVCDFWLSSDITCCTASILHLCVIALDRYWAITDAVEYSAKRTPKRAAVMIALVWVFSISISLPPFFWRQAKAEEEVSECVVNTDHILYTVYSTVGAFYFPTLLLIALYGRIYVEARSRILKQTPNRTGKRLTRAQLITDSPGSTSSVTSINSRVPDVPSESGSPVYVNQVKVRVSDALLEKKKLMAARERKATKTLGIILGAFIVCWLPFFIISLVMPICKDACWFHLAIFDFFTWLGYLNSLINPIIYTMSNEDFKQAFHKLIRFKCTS

[4] = target: Dopamine transporter (Homo sapiens, UniProt Q01959); assay: DAT monoamine transporter uptake assay (Blocker)
Dopamine transporter, sequence (Q01959 whole entry): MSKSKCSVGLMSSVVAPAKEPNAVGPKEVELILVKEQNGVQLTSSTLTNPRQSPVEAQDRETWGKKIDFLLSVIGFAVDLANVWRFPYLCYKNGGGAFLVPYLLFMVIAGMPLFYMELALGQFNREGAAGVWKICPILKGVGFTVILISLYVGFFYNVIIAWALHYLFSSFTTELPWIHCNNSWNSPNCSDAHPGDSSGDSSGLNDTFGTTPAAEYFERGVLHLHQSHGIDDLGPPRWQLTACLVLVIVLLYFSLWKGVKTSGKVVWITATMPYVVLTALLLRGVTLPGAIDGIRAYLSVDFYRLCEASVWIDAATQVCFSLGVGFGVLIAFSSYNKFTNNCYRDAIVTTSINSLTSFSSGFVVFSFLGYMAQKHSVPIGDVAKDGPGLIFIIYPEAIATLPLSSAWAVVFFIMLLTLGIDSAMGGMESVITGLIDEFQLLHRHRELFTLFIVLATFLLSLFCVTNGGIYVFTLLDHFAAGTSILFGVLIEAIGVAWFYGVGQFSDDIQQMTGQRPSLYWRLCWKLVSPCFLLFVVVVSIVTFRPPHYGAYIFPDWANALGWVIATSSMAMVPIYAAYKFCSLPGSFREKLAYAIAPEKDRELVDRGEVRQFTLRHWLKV

[5] = target: T1, human DAT (Homo sapiens, UniProt Q01959); assay: hDAT release assay ([3H]dopamine release); type: cell-based
T1 construct: expressed in transfected cells; host or cells: Chinese hamster ovary (CHO) cells
T1 sequence (Q01959 whole entry): as above

[6] = target: 5-Hydroxytryptamine (Serotonin) Receptor 2B (Homo sapiens, UniProt P41595); assay: 5-HTR2B activity assay (Agonist/Antagonist); type: cell-based
5-Hydroxytryptamine (Serotonin) Receptor 2B, sequence (P41595 whole entry): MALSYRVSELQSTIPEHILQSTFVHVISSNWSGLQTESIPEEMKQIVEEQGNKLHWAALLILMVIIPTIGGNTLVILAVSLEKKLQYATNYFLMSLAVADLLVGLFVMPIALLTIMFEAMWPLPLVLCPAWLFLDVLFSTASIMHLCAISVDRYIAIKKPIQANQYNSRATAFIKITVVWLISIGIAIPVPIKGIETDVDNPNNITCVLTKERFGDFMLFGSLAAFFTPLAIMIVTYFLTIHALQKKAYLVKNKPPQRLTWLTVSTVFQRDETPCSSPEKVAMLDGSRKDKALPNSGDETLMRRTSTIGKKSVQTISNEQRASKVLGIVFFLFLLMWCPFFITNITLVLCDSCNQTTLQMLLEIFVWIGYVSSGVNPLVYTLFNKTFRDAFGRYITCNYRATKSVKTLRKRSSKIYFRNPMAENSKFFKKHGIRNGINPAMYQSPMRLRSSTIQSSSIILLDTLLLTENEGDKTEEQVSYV

[7] = target: T2, human SERT (Homo sapiens, UniProt P31645); assay: hSERT release assay ([3H]serotonin release); type: cell-based
T2 construct: expressed in transfected cells; host or cells: Chinese hamster ovary (CHO) cells
T2 sequence (P31645 whole entry): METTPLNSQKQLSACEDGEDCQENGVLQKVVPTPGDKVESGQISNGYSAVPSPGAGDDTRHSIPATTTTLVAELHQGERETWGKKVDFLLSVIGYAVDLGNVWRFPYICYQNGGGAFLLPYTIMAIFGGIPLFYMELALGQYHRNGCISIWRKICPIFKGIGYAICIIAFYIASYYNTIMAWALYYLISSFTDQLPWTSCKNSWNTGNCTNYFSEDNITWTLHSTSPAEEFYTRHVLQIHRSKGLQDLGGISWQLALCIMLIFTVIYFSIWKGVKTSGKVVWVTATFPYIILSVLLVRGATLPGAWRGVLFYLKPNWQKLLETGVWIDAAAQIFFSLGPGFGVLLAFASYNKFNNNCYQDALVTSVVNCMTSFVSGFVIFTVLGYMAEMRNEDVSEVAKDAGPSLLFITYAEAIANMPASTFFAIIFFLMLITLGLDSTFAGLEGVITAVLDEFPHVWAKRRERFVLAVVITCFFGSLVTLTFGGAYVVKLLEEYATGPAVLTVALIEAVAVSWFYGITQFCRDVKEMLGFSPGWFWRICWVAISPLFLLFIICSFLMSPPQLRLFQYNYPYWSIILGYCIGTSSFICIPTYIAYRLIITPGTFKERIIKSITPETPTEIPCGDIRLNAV

[8] = target: Norepinephrine transporter (Homo sapiens, UniProt P23975); assay: NET monoamine transporter uptake assay (Blocker)
Norepinephrine transporter, sequence (P23975 whole entry): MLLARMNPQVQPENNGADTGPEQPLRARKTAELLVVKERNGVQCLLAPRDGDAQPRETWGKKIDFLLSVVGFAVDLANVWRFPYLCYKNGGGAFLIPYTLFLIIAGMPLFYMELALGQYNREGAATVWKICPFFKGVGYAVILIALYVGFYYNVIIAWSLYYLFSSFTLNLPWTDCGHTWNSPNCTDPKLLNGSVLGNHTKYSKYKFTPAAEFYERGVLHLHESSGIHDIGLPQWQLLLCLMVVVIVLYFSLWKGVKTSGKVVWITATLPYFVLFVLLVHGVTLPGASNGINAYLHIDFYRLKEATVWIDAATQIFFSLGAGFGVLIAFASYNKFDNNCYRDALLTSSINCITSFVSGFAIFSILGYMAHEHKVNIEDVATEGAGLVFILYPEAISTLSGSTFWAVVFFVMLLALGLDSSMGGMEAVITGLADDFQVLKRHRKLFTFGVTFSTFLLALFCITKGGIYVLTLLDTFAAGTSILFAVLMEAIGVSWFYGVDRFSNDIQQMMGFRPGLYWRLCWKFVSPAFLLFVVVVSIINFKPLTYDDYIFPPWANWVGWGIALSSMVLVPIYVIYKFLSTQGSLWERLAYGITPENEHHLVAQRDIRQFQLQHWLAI

[9] = system: DAT / SERT; conditions: 1/IC50 at DAT divided by 1/IC50 at SERT; uptake inhibition; cited from earlier work
[10] = system: DAT / SERT; conditions: neurotransmitter release; cited from earlier work
[11] = after 75 or 125 mg MDMA; standard deviation of 1.3 hours; cited from earlier work
[12] = system: neuritogenesis; conditions: Ly et al. 2018, Figure S3, cited from earlier work
[13] = system: DAT / NET; conditions: neurotransmitter release; cited from earlier work

Nicotinic acetylcholine Receptor α4 β2, sequence (P43681 29-627 limits assumed): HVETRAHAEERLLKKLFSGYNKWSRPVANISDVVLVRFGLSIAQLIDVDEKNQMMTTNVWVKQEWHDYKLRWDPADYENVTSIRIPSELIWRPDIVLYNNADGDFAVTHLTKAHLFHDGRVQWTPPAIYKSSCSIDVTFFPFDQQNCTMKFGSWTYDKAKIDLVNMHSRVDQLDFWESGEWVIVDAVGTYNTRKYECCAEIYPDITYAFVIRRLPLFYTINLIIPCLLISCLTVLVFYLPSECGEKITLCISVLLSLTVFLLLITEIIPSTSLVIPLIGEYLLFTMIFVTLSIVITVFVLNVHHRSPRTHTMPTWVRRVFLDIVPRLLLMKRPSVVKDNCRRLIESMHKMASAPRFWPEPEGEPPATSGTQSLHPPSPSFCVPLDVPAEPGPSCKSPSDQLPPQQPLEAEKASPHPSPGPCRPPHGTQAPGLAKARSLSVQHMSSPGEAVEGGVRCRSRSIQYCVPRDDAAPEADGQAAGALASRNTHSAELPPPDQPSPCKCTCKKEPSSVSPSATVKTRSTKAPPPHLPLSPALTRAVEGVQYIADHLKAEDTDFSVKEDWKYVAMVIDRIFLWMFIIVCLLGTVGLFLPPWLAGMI
Nicotinic acetylcholine Receptor α4 β2, sequence (P17787 26-502): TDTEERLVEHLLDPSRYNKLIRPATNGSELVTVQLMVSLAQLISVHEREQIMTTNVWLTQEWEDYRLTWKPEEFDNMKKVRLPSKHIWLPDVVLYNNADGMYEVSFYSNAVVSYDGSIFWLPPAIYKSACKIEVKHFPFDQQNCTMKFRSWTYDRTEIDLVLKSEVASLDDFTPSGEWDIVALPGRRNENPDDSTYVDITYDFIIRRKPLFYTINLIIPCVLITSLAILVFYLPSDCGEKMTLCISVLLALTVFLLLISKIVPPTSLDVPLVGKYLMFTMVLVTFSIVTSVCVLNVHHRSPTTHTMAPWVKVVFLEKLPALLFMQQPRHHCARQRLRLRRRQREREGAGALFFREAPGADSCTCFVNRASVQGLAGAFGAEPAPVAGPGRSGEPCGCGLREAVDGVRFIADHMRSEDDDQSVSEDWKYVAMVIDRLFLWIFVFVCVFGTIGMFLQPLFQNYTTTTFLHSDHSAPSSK

Picrotoxin
IC50 [1]: 2.78 µM

Dihydro-AY-erythroidine
IC50 [2]: 0.682 µM

CNC(C)C(=O)c1ccc2ccccn12 (stereo not drawn) [Structure XLX]
EC50 [3]: 1.13 µM | IC50 [4]: 2.41 µM | EC50 [5]: 0.227 µM | DAT/SERT ratio* ([5]; calculated as (DAT EC50)^−1/(SERT EC50)^−1, larger numbers indicate higher DAT selectivity): 2.1 | Relative potency of release, DAT versus 5-HT ([5]; hMAT release assays): more potent at releasing DAT than 5-HT | IC50 [6]: 2.14 µM | EC50 [7]: 0.109 µM | IC50 [8]: 5.69 µM

CCNC(C)Cc1ccc2c(c1)OCO2 (stereo not drawn) [MDEA, [1-(2H-1,3-benzodioxol-5-yl)propan-2-yl](ethyl)amine]
DAT/SERT IC50 ratio [9]: 3.2 | DAT/SERT EC50 ratio [10]: 0.76

CNC(C)Cc1ccc2c(c1)OCO2 (stereo not drawn) [MDMA]
Duration of acute therapeutic effects [11]: 4.2 h | DAT/SERT IC50 ratio [9]: 0.08 | Emax for promoting neuritogenesis relative to ketamine [12]: approximately twice that of ketamine | EC50 ([12]; read-out: EC50 for promoting neuritogenesis): 0.00741 µM

CN[C@@H](C)Cc1ccccc1 [d-methamphetamine]
DAT/NET EC50 ratio [13]: 0.5

C[C@H](N)Cc1ccccc1 [d-amphetamine, D-amphetamine]
DAT/NET EC50 ratio [13]: 0.9

From patent US20240308999A1 (priority 2021, published 2024)
